The record followed here is patent US9440946B2, “N-phenethylcarboxamide derivatives” (BAYER INTELLECTUAL PROPERTY GMBH, priority 2005, dated 2016).

Each structure is given as a SMILES string. A value given as a limit tells only on which side of the number the result lay.

One assay relates to Alternaria brassicae. Briefly: In vivo test on Alternaria brassicae (leaf spot of crucifers), preventive spray on radish plants. Particulars: radish plants (Pernot variety), contaminated 24 hours after treatment, grading 6 to 7 days after contamination vs control plants, read-out: protection (good, at least 70%, or total); for pest or weed control at 500 ppm: dose of 500 ppm; for pest or weed control at 330 ppm: dose of 330 ppm. Here is the method: (§1) The active ingredients tested are prepared by homogenization in a mixture of acetone/tween/DMSO, then diluted with water to obtain the desired active material concentration.
Radish plants (Pernot variety), sown on a 50/50 peat soil-pozzolana substrate in starter cups and grown at 18-20° C., are treated at the cotyledon stage by spraying with the active ingredient prepared as described above.
(§2) Plants, used as controls, are treated with the mixture of acetone/tween/DMSO/water not containing the active material.
After 24 hours, the plants are contaminated by spraying them with an aqueous suspension of Alternaria brassicae spores (40,000 spores per cm^3). The spores are collected from a 12 to 13 days-old culture.
The contaminated radish plants are incubated for 6-7 days at about 18° C., under a humid atmosphere.
Grading is carried out 6 to 7 days after the contamination, in comparison with the control plants.

In another assay the test system is Botrytis cinerea. Put plainly: In vivo test on Botrytis cinerea (cucumber grey mould), preventive spray on gherkin plants. The settings on record: gherkin plants (Vert petit de Paris variety), contaminated 24 hours after treatment, grading 5/7 days after contamination vs control plants, read-out: protection (good, at least 50%, or total); for pest or weed control at 500 ppm: dose of 500 ppm; for pest or weed control at 330 ppm: dose of 330 ppm. Here is the method: The active ingredients tested are prepared by homogenization in a mixture of acetone/tween/DMSO, then diluted with water to obtain the desired active material
Gherkin plants (Vert petit de Paris variety), sown on a 50/50 peat soil-pozzolana substrate in starter cups and grown at 18-20° C., are treated at the cotyledon Z11 stage by spraying with the active ingredient prepared as described above.
as §2
After 24 hours, the plants are contaminated by depositing drops of an aqueous suspension of Botrytis cinerea spores (150,000 spores per ml) on upper surface of the leaves. The spores are collected from a 15-day-old culture and are suspended in a nutrient solution composed of: • 20 g/L of gelatin • 50 g/L of cane sugar • 2 g/L of NH4NO3 • 1 g/L of KH2PO4
The contaminated cucumber plants are settled for 5/7 days in a climatic room at 15-11° C. (day/night) and at 80% relative humidity.
Grading is carried out 5/7 days after the contamination, in comparison with the control plants. Under these conditions, good (at least 50%) or total protection is observed: • at a dose of 500 ppm with the following compounds: C-1, D-12, G-8 and I-1; and • at a dose of 330 ppm with the following compounds: G-2, G-5, G-6 and G11.

Another assay has as its system Pyrenophora teres. Put plainly: In vivo test on Pyrenophora teres (barley net blotch), preventive spray on barley plants. The settings on record: 288 h, barley plants (Express variety), contaminated 24 hours after treatment, grading 12 days after contamination vs control plants, read-out: protection (good, at least 70%, or total); for pest or weed control at 330 ppm: dose of 330 ppm. Here is the method:
as §1
Barley plants (Express variety), sown on a 50/50 peat soil-pozzolana substrate in starter cups and grown at 12° C., are treated at the 1-leaf stage (10 cm tall) by spraying with the active ingredient prepared as described above. Plants, used as controls, are treated with the mixture of acetone/tween/DMSO/water not containing the active material.
After 24 hours, the plants are contaminated by spraying them with an aqueous suspension of Pyrenophora teres spores (12,000 spores per ml). The spores are collected from a 12-day-old culture. The contaminated barley plants are incubated for 24 hours at about 20° C. and at 100% relative humidity, and then for 12 days at 80% relative humidity.
Grading is carried out 12 days after the contamination, in comparison with the control plants.

As for `Cc1ccsc1C(=O)NCCc1ccc(Cl)cc1Cl` [Compound A-2], the pest or weed control at 500 ppm in the assay with Alternaria brassicae is not below 70%. On to `Cc1occc1C(=O)NCCc1ccc(Cl)cc1Cl` [Compound C-1], for which the pest or weed control at 500 ppm in the assay with Botrytis cinerea was not below 50%.

As to `Cc1ccc(CCNC(=O)c2sc(C)nc2C(F)(F)F)c(C)c1` [Compound D-2], the pest or weed control at 330 ppm in the assay on Alternaria brassicae is not below 70%. Still for that read-out and setting: as for `Cc1nc(C(F)(F)F)c(C(=O)NCCc2c(Cl)cccc2Cl)s1` [Compound D-4], the figure is not below 70%. Take `Cc1nc(C(F)(F)F)c(C(=O)NCCc2ccccc2C)s1` [Compound D-6]: in the assay on Pyrenophora teres, the pest or weed control at 330 ppm is not below 70%. Regarding `Cc1nc(N)sc1C(=O)NCCc1ccc(Cl)cc1Cl` [Compound D-8], the pest or weed control at 500 ppm with Alternaria brassicae and in the assay on Pyrenophora teres (dose of 500 ppm) was not below 70% each time. Take `Cc1nc(C(F)F)c(C(=O)NCCc2ccc(Cl)cc2Cl)s1` [Compound D-12]: the pest or weed control at 500 ppm in the assay on Botrytis cinerea was not below 50%. On to `Cc1ccc(C)c(CCNC(=O)c2cccnc2Cl)c1` [Compound E-1], for which the pest or weed control at 330 ppm in the assay with Alternaria brassicae is not below 70%. Still for that read-out and setting: as for `Cc1ccccc1CCNC(=O)c1cccnc1Cl` [Compound E-2], the figure is not below 70%; as for `Cc1ccc(CCNC(=O)c2cccnc2Cl)c(C)c1` [Compound E-9], not below 70%. On to `Cn1cc(C(=O)NCCc2ccccc2Cl)c(C(F)F)n1` [Compound G-2], for which the results for the pest or weed control at 330 ppm with Alternaria brassicae, in the assay with Botrytis cinerea and with Pyrenophora teres were not below 70%, not below 50% and not below 70%, respectively.

For `COc1cccc(CCNC(=O)c2cn(C)nc2C(F)F)c1OC` [Compound G-3], the pest or weed control at 330 ppm in the assay with Alternaria brassicae was not below 70%. As for `COc1ccccc1CCNC(=O)c1cn(C)nc1C(F)F` [Compound G-4], the pest or weed control at 330 ppm in the assay with Alternaria brassicae and in the assay on Pyrenophora teres was not below 70% in each case. With `Cc1ccc(CCNC(=O)c2cn(C)nc2C(F)F)c(C)c1` [Compound G-5], the pest or weed control at 330 ppm was not below 70% in the assay on Alternaria brassicae, not below 50% with Botrytis cinerea and not below 70% with Pyrenophora teres. Take `Cn1cc(C(=O)NCCc2c(Cl)cccc2Cl)c(C(F)F)n1` [Compound G-6]: the pest or weed control at 330 ppm was not below 70% in the assay on Alternaria brassicae, not below 50% in the assay on Botrytis cinerea and not below 70% in the assay on Pyrenophora teres. With `COc1ccc(OC)c(CCNC(=O)c2cn(C)nc2C(F)F)c1` [Compound G-7], the pest or weed control at 330 ppm in the assay on Alternaria brassicae was not below 70%. Regarding `Cn1cc(C(=O)NCCc2ccc(F)cc2F)c(C(F)F)n1` [Compound G-8], the pest or weed control at 330 ppm in the assay with Alternaria brassicae and in the assay with Pyrenophora teres was not below 70% in each case. Also, the pest or weed control at 500 ppm in the assay on Botrytis cinerea is not below 50%. With `COc1ccc(Br)cc1CCNC(=O)c1cn(C)nc1C(F)F` [Compound G-10], in the assay on Alternaria brassicae, the pest or weed control at 330 ppm is not below 70%.

For the molecule `Cn1cc(C(=O)NCCc2c(Cl)cc(C(F)(F)F)cc2Cl)c(C(F)F)n1` [Compound G-11], the values for the pest or weed control at 330 ppm in the assay with Botrytis cinerea and with Pyrenophora teres were not below 50% and not below 70%, respectively. In the case of `Cc1ccccc1CCNC(=O)c1cn(C)nc1C(F)F` [Compound G-12], the pest or weed control at 330 ppm with Alternaria brassicae is not below 70%. `Cc1ccccc1CCNC(=O)c1cn(C)nc1C(F)(F)F` [Compound G-14]: the pest or weed control at 330 ppm in the assay on Alternaria brassicae was not below 70%. For `Cn1cc(C(=O)NCCc2ccc(C(F)(F)F)cc2Cl)c(C(F)(F)F)n1` [Compound G-15], the pest or weed control at 330 ppm with Alternaria brassicae and in the assay on Pyrenophora teres was not below 70% in each case.

With `Cc1ccc(C)c(CCNC(=O)c2cn(C)nc2C(F)(F)F)c1` [Compound G-17], the pest or weed control at 330 ppm in the assay with Alternaria brassicae is not below 70%. In the case of `Cn1cc(C(=O)NCCc2ccc(F)cc2F)c(C(F)(F)F)n1` [Compound G-20], the pest or weed control at 330 ppm with Pyrenophora teres is not below 70%. For `O=C(NCCc1ccc(Cl)cc1Cl)c1ccsc1I` [Compound I-1], the pest or weed control at 500 ppm in the assay with Alternaria brassicae was not below 70%; in the assay with Botrytis cinerea, not below 50%.
